Data set [1] has as its system Candida albicans (ATCC90028). Kind of data set: Broth dilution anti-fungal susceptibility (NCCLS M27-A2), MIC. The following applies: Candida albicans, ATCC90028, Table 1; MICs read at 80% inhibition; 35° C., 18 to 24 hours; tested 0.12 to 64 μg/ml. In kind it is cell-based. Here is the method: (§1) The anti-fungal activity of the compounds according to the invention were evaluated against Candida albicans (ATCC90028), Cryptococcus neoformans (ATCC32045), and Aspergillus fumigatus (ATCC13073) according to NCCLS guidelines (NCCLS reference method for broth dilution anti-fungal susceptibility testing of yeasts; approved standard-second edition, M27-A2, National Committee for Clinical Laboratory Standards, Villanova, Pa. 2003; and NCCLS reference method for broth dilution anti-fungal susceptibility testing of filamentous fungi; approved standard, M38-A, National Committee for Clinical Laboratory Standards, Villanova, Pa. 2002).
(§2) The medium required for the evaluation of anti-fungal activity was prepared as follows. RPMI 1640 broth+MOPS, pH adjusted and filter sterilized. Sabouraud Dextrose Agar (SDA) plates were used for growing fungi.
(§3) All test or candidate compounds were prepared as 5 mg/ml stock solutions in DMSO and further diluted according to the NCCLS guidelines with sterile water or appropriate diluent. A working stock of 256 μg/ml was used to prepare 1:2 serial dilutions in 96-well plates.
(§4) The inoculums of fungi were prepared by making a direct sterile water suspension of colonies/spores from SDA plates. 0.1% Tween 20 was used for A. fumigatus for better dispersal of spores in suspension. For C. albicans and C. neoformans overnight cultures were used. A. fumigatus required longer incubation. Each fungal suspension was adjusted to read between 70 and 75% transmittance at 530 nm (0.5 McFarland Standard). These suspensions were further diluted 1/1000 in appropriate broth for inoculating the 96-well plates.
(§5) All plates were incubated at 35° C. for the following times: 18 hours to 24 hours for C. albicans, 48 hours for A. fumigatus, and 48 to 72 hours for C. neoformans.
(Broth dilution looks for growth in wells or tubes with falling amounts of substance.)

For data set [2], the system named is Cryptococcus neoformans (ATCC32045). The data set is described as above. In kind it is cell-based. The following applies: Table 1, MICs read at 80% inhibition, 35° C., 48 to 72 hours, tested 0.12 to 64 μg/ml. Here is the method:
as §1, §2, §3, §4, §5

The subject of the next data set is brine shrimp. In kind it is in vivo. The following applies: at 100 μg/ml. As for the experimental part:
The general in vitro toxicity of these compounds can be tested using the Brine Shrimp Lethality assay, as described in Mclaughlin, J. L. in Methods in Plant Biochemistry. Ed. K. Hostettmann, Academic Press, London, 1991; Vol. 6, pp. 1-32. Typically, candidate compounds are diluted in seawater to a suitable concentration and added to second instar larvae of Artemia salina. After a suitable period of time, for example 24 hours, the survivors are counted. In vitro acute toxicity testing of a compound of Formula I can also be performed using mammalian cell lines (see, for example, Ekwall, B., Ann. N.Y. Acad. Sci., (1983) 407:64-77). Selection of an appropriate cell line is dependent on the potential application of the candidate compound and can be readily determined by one skilled in the art.
To test the general toxicity of these compounds, Brine Shrimp Lethality assay was carried out according to Mclaughlin, J. L. in Methods in Plant Biochemistry. Ed. K. Hostettmann, Academic Press, London, 1991; Vol. 6, pp. 1-32. The compounds were tested at 100 μg/ml.

Data set [3] concerns Aspergillus fumigatus (ATCC13073). The experiment in a line: Broth dilution anti-fungal susceptibility of filamentous fungi (NCCLS M38-A), MIC. In kind it is cell-based. The following applies: Table 1, MICs read at 80% inhibition, 35° C., 48 hours, tested 0.12 to 64 μg/ml. Here is the method:
as §1, §2, §3, §4, §5

In brackets after ≈: the same amount, converted by molar mass.

Regarding `CCCCCCCCOc1ccc(NC(=O)C2(O)CC(OC(=O)/C=C/c3ccc(O)c(O)c3)C3OC(C)(C)OC3C2)cc1` (stereo not drawn) [Compound 1], the MIC (in general, the least concentration at which growth counts as inhibited) in data set [1] is 16 µg/mL (≈ 26.8 µM); in data set [2], 2 µg/mL (≈ 3.35 µM); in data set [3], over 64 µg/mL. The “% BL (brine shrimp lethality)” value with brine shrimp was 100.0%.
For `CCCCCCCCOc1ccc(NC(=O)C2(O)CC(O)C(O)C(OC(=O)/C=C/c3ccc(O)c(O)c3)C2)cc1` (stereo not drawn) [Compound 2] the same measures were 8 µg/mL (≈ 14.3 µM), 2 µg/mL (≈ 3.59 µM), over 64 µg/mL and 50.0%.
In the case of `CCCCCCCCOc1ccc(NC(=O)C(COC(C)(C)C)NC(=O)C2(O)CC(OC(=O)/C=C/c3ccc(O)c(O)c3)C3OC(C)(C)OC3C2)cc1` (stereo not drawn) [Compound 3], the values for the minimal inhibitory concentration (MIC) in data set [1], in data set [2] and in data set [3] were 32 µg/mL (≈ 43.2 µM), 2 µg/mL (≈ 2.7 µM) and over 64 µg/mL, respectively. Moreover, in the data set on brine shrimp, the “% BL (brine shrimp lethality)” value is 31.3%.
`CCCCCCCCOc1ccc(NC(=O)C(NC(=O)C2(O)CC(OC(=O)/C=C/c3ccc(O)c(O)c3)C3OC(C)(C)OC3C2)C(C)OC(C)(C)C)cc1` (stereo not drawn) [Compound 4]: the minimal inhibitory concentration (MIC) in data set [1] is 32 µg/mL (≈ 42.4 µM); in data set [2] it was 4 µg/mL (≈ 5.3 µM); in data set [3], over 64 µg/mL. In addition, in the data set with brine shrimp, the “% BL (brine shrimp lethality)” value amounted to 6.2%.
For `CCCCCCCCOc1ccc(NC(=O)C(CC(=O)OC(C)(C)C)NC(=O)C2(O)CC(OC(=O)/C=C/c3ccc(O)c(O)c3)C3OC(C)(C)OC3C2)cc1` (stereo not drawn) [Compound 5] the same measures were over 64 µg/mL, 2 µg/mL (≈ 2.6 µM), over 64 µg/mL and 56.2%.
For `CCCCCCCCOc1ccc(NC(=O)C(CCCNC(=O)OC(C)(C)C)NC(=O)C2(O)CC(OC(=O)/C=C/c3ccc(O)c(O)c3)C3OC(C)(C)OC3C2)cc1` (stereo not drawn) [Compound 6] the same measures were over 64 µg/mL, 2 µg/mL (≈ 2.46 µM), over 64 µg/mL and 12.5%.
The corresponding values for `CCCCCCCCOc1ccc(NC(=O)C(COC(C)(C)C)NC(=O)C2(O)CC(O)C(O)C(OC(=O)/C=C/c3ccc(O)c(O)c3)C2)cc1` (stereo not drawn) [Compound 7] are 4 µg/mL (≈ 5.71 µM), 2 µg/mL (≈ 2.85 µM), over 64 µg/mL and 31.1%.
Turning to `CCCCCCCCOc1ccc(NC(=O)C(CC(=O)OC(C)(C)C)NC(=O)C2(O)CC(O)C(O)C(OC(=O)/C=C/c3ccc(O)c(O)c3)C2)cc1` (stereo not drawn) [Compound 9], the MIC is 2 µg/mL (≈ 2.74 µM) in data set [1], 2 µg/mL (≈ 2.74 µM) in data set [2] and over 64 µg/mL in data set [3]. The “% BL (brine shrimp lethality)” value in the data set on brine shrimp stood at 37.5%.
As for `CCCCCCCCOc1ccc(NC(=O)C(CCCNC(=O)OC(C)(C)C)NC(=O)C2(O)CC(O)C(O)C(OC(=O)/C=C/c3ccc(O)c(O)c3)C2)cc1` (stereo not drawn) [Compound 10], the results for the MIC in data set [1], in data set [2] and in data set [3] were 2 µg/mL (≈ 2.59 µM), 1 µg/mL (≈ 1.3 µM) and over 64 µg/mL, respectively. In addition, the “% BL (brine shrimp lethality)” value in the data set with brine shrimp is recorded as 25.0%.
For `CCCCCCCCOc1ccc(NC(=O)C(CO)NC(=O)C2(O)CC(O)C(O)C(OC(=O)/C=C/c3ccc(O)c(O)c3)C2)cc1` (stereo not drawn) [Compound 11] the same measures were over 64 µg/mL, 4 µg/mL (≈ 6.2 µM), over 64 µg/mL and 18.8%.
The corresponding values for `CCCCCCCCOc1ccc(NC(=O)C(CC(=O)O)NC(=O)C2(O)CC(O)C(O)C(OC(=O)/C=C/c3ccc(O)c(O)c3)C2)cc1` (stereo not drawn) [Compound 13] are 64 µg/mL (≈ 95.1 µM), 16 µg/mL (≈ 23.8 µM), over 64 µg/mL and 6.3%.
On to `CCCCCCCCOc1ccc(NC(=O)C(CCCN)NC(=O)C2(O)CC(O)C(O)C(OC(=O)/C=C/c3ccc(O)c(O)c3)C2)cc1` (stereo not drawn) [Compound 14], for which the minimum inhibitory concentration (MIC) came out at 4 µg/mL (≈ 5.95 µM) in data set [1], 1 µg/mL (≈ 1.49 µM) in data set [2] and 16 µg/mL (≈ 23.8 µM) in data set [3]. Besides, the “% BL (brine shrimp lethality)” value with brine shrimp was 37.5%.
For `CCCCCCCCOc1ccc(NC(=O)C(CCCNC(=O)OC(C)(C)C)NC(=O)C2(O)CC(O)C(O)C(OC(=O)CCc3ccc(O)c(O)c3)C2)cc1` (stereo not drawn) [Compound 15] the same measures were over 64 µg/mL, 4 µg/mL (≈ 5.17 µM), over 64 µg/mL and 21.1%.
As to `CCCCCCCCOc1ccc(NC(=O)C(CCCN)NC(=O)C2(O)CC(O)C(O)C(OC(=O)CCc3ccc(O)c(O)c3)C2)cc1` (stereo not drawn) [Compound 16], the MIC turned out to be 16 µg/mL (≈ 23.7 µM) in data set [1], 8 µg/mL (≈ 11.9 µM) in data set [2] and 64 µg/mL (≈ 95 µM) in data set [3]. Also, the “% BL (brine shrimp lethality)” value in the data set with brine shrimp is reported as 10.5%.
For `CCCCCCCCOc1ccc(NC(=O)C(CCCNC(=O)OC(C)(C)C)NC(=O)C2(O)CC(OC(=O)/C=C/c3ccc(O)cc3)C3OC(C)(C)OC3C2)cc1` (stereo not drawn) [Compound 17] the same measures were over 64 µg/mL, over 64 µg/mL, over 64 µg/mL and 0.0%.
For `CCCCCCCCOc1ccc(NC(=O)C(CCCNC(=O)OC(C)(C)C)NC(=O)C2(O)CC(O)C(O)C(OC(=O)/C=C/c3ccc(O)cc3)C2)cc1` (stereo not drawn) [Compound 18], the MIC in data set [1], in data set [2] and in data set [3] was over 64 µg/mL each time. In the data set on brine shrimp, the “% BL (brine shrimp lethality)” value turned out to be 31.6%.
On to `CCCCCCCCOc1ccc(NC(=O)C(CCCN)NC(=O)C2(O)CC(O)C(O)C(OC(=O)/C=C/c3ccc(O)cc3)C2)cc1` (stereo not drawn) [Compound 19], for which the minimum inhibitory concentration (MIC) was found to be 8 µg/mL (≈ 12.2 µM) in data set [1], 4 µg/mL (≈ 6.1 µM) in data set [2] and 32 µg/mL (≈ 48.8 µM) in data set [3]. Also, the “% BL (brine shrimp lethality)” value in the data set on brine shrimp was 100%.
With `CCCCCCCCOc1ccc(NC(=O)C(CCCNC(=O)OC(C)(C)C)NC(=O)C2(O)CC(OC(=O)C(CCc3ccc(O)cc3)NC(=O)OCC3c4ccccc4-c4ccccc43)C3OC(C)(C)OC3C2)cc1` (stereo not drawn) [Compound 20], the MIC in data set [1], in data set [2] and in data set [3] was over 64 µg/mL in each case. The “% BL (brine shrimp lethality)” value in the data set with brine shrimp amounted to 10.5%.
As to `CCCCCCCCOc1ccc(NC(=O)C(CCCNC(=O)OC(C)(C)C)NC(=O)C2(O)CC(OC(=O)C(N)CCc3ccc(O)cc3)C3OC(C)(C)OC3C2)cc1` (stereo not drawn) [Compound 21], the MIC in data set [1], in data set [2] and in data set [3] was over 64 µg/mL throughout. In addition, the “% BL (brine shrimp lethality)” value in the data set on brine shrimp amounted to 47.7%.
Regarding `CCCCCCCCOc1ccc(NC(=O)C(CCCNC(=O)OC(C)(C)C)NC(=O)C2(O)CC(O)C(O)C(OC(=O)C(N)CCc3ccc(O)cc3)C2)cc1` (stereo not drawn) [Compound 22], the MIC is over 64 µg/mL in data set [1], 4 µg/mL (≈ 5.08 µM) in data set [2] and over 64 µg/mL in data set [3]. For the same compound, in the data set on brine shrimp, the “% BL (brine shrimp lethality)” value amounted to 36.8%.
With `CCCCCCCCOc1ccc(NC(=O)C(CCCN)NC(=O)C2(O)CC(O)C(O)C(OC(=O)C(N)CCc3ccc(O)cc3)C2)cc1` (stereo not drawn) [Compound 23], the MIC in data set [1] is 64 µg/mL (≈ 93.2 µM); in data set [2], 2 µg/mL (≈ 2.91 µM); in data set [3], over 64 µg/mL. Moreover, the “% BL (brine shrimp lethality)” value in the data set with brine shrimp worked out at 73.7%.
For the compound `OC(Cn1cncn1)(Cn1cncn1)c1ccc(F)cc1F` [Fluconazole, reference compound], the MIC is 0.25 µg/mL (≈ 0.816 µM) in data set [1], 0.5 µg/mL (≈ 1.63 µM) in data set [2] and over 64 µg/mL in data set [3].

The values are drawn from patent US20100311827A1, “Chlorogenic acid derivatives and their use as anti-fungal agents” (priority 2006, published 2010).
